Measurements published in US11187660B2, “Fluorescent probes for monitoring voltage by photo-induced electron transfer” (The Regents of the University of California, priority 2011, dated 2021).

Assays:
[1] = test system: cultured hippocampal neurons; conditions: cultured hippocampal neurons (25); cited from earlier work
[2] = Absorbance and emission spectra in aqueous buffer with Triton X-100; format: physicochemical; conditions: 5 mM sodium phosphate, pH 9, 0.1% Triton X-100
Method: FIG. 8A, FIG. 8B, and FIG. 8C show the normalized absorbance and emission spectra for exemplary compounds of the invention in 5 mM sodium phosphate, pH 9 with 0.1% Triton X-100. Black lines are absorbance spectra; grey lines are emission spectra. a) VF1.4.Cl, b) VF2.4.Cl, and c) VF2.1.Cl.
All dyes feature emission and excitation profiles typical of dichlorofluoresceins (VF1.4.Cl: λmax=521 nm, ε=93,000 M^−1·cm^−1, λem=534 nm, Φ=0.24; VF2.4.Cl: λmax=522 nm, ε=97,000 M^−1·cm^−1, λem=536 nm, Φ=0.054; VF2.1.Cl: λmax=522 nm, ε=98 000 M^−1·cm^−1, λcm=535 nm, Φ=0.057, 5 mM sodium phosphate, pH 9, 0.1% Triton X-100) (FIG. 8).
UV absorbance and fluorescence spectra were recorded on a Cary 3E (Varian) and Fluorolog 2 (Spex) fluorimeter, respectively. Analytical, semi-preparative, and preparative HPLCs were performed on Agilent HPLCs, with Luna C18(2) columns (Phenomenex) using water (solvent A) and acetonitrile (solvent B) with 0.05% TFA as an additive. Low resolution ESI mass spectrometry was performed on an Agilent LC/MSD Trap XCT coupled to an Agilent HPLC. High resolution mass spectra were acquired on a ThermoFisher Orbitrap XL hybrid mass spectrometer. ^1H NMR spectra were collected in CDCl3 or d6-DMSO (Cambridge Isotope Laboratories, Cambridge, Mass.) at 25° C. on a 400 Varian Mercury Plus or Jeol ECA 500 spectrometer at the Department of Chemistry and Biochemistry NMR Facility at the University of California, San Diego. All chemical shifts are reported in the standard δ notation of parts per million using the peak of residual proton signals of CDCl3 or d6-DMSO as an internal reference.

HEK293 cells [3] = test: Voltage sensitivity of fluorescence in voltage-clamped HEK cells (whole-cell recording); format: cell-based, human
From the text: Membrane voltage of cells loaded with VF1.4.Cl or VF2.4.Cl were controlled by making tight-seal whole-cell recordings. Cells were maintained at a holding potential of −60 mV and stepped for 50 ms to various depolarizing and hyperpolarizing potentials (FIG. 5A), while simultaneously acquiring epifluorescence images. For both sensors, depolarizing steps result in fluorescence increases while hyperpolarizing steps decrease fluorescence intensity, in keeping with our proposed mechanism. […] For di-4-ANEPPS, typical values are 0.08-0.12% per mV. The larger changes for VF1.4.Cl and VF2.4.Cl compared to di-4-ANEPPS are somewhat expected, since a PeT-based voltage sensor samples the entire emission spectrum, whereas electrochromic dyes are limited to the edge of the spectrum only. For both probes, the voltage responses are linear across the physiologically relevant ranges of −100 mV to +100 mV. To assess the speed of the optical response to voltage, VF2.4.Cl signals were monitored in response to voltage steps of 100 mV from a holding potential of −60 mV.
We characterized the voltage sensitivity of all three indicators by making tight-seal whole-cell recordings of HEK293 cells stained with the VF sensors. Cells were voltage-clamped at −60 mV holding potential and sequentially stepped to depolarizing and hyperpolarizing potentials at 20-mV increments (FIG. 9B). For all three dyes, depolarizing steps produced fluorescence increases, whereas hyperpolarizing steps produced fluorescence decreases, in keeping with the proposed PeT mechanism. The fluorescence response is linear over the range of −100 mV to +100 mV (FIG. 9C), with voltage sensitivities ΔF/F per 100 mV of 20±1% for VF1.4.Cl and 25±1% for VF2.4.Cl. This statistically significant increase in voltage sensitivity (P<0.05, two-tailed Student t test) is expected upon increasing the length of the molecular wire, and is 2.5- to 4-times more sensitive than di-4-ANEPPS, which, in our hands, gives sensitivities of between 6% and 10% ΔF/F per 100 mV. […] To investigate the speed of response of VF probes, we again made whole-cell recordings of cells stained with VF2.4.Cl, applied 100-mV depolarizing steps from a holding potential of −60 mV, and recorded both the electrophysiological signals and the optical signals.
Electrophysiological recordings of HEK293 cells and cultured neurons were performed with an Axopatch 200A or 200B amplifier (Molecular Devices) at room temperature. The signals were digitized with Digidata 1332A and recorded with pCLAMP 9 software (Molecular Devices) on a PC. Analysis of electrophysiological data was done with AxoGraph X (AxoGraphX), pCLAMP 9, and/or ClampFit (Molecular Devices). For most experiments the extracellular solution consisted of (in mM) 145 NaCl, 20 glucose, 10 HEPES, 3 KCl, 2 CaCl2, 1 MgCl2 (pH 7.35, 310 mOsm). The intracellular solution contained (in mM) 115 potassium gluconate, 10 BAPTA tetrapotassium salt, 10 HEPES, 5 NaCl, 10 KCl, 2 ATP disodium salt, 0.3 GTP trisodium salt (pH 7.25, 290 mOsm).
For studies to determine excitation sensitivity of dyes, illumination was provided by a Polychrom IV light source (T.I.L.L. Photonics GMBH) with a mechanical shutter (Uniblitz VS25). For all other studies, light was provided by an Xenon arc lamp powered by an Optiquip Power supply (Optiquip) with a mechanical shutter controlled by a Lambda 10-2 controller (Sutter). […]

HEK cells [4] = test: Bleach rate in HEK cells; format: cell-based, human; conditions: for bleach rate: HEK cells, 7 W/cm^2
Method: The dibutyl (VFx.4.Cl) dyes stain the cell membranes of HEK293 cells when loaded at a concentration of 2 μM for 15 min at 37° C. in buffer with 0.1% DMSO as cosolvent (FIG. 9A, and FIG. 10). […] The bleach rates of the probes were tested in HEK cells and compared with di-4-ANEPPS. The bleach rates for VF1.4.Cl, VF2.4.Cl, and VF2.1.Cl at 7 W/cm^2 were measured to be 3.9±0.1×10^−2 s^−1, 1.8±0.1×10^−2 s^−1, and 8.0±0.1×10^−3 s^−1, respectively.
For studies to determine excitation sensitivity of dyes, illumination was provided by a Polychrom IV light source (T.I.L.L. Photonics GMBH) with a mechanical shutter (Uniblitz VS25). For all other studies, light was provided by an Xenon arc lamp powered by an Optiquip Power supply (Optiquip) with a mechanical shutter controlled by a Lambda 10-2 controller (Sutter). Light from the Xenon arc lamp was filtered through a 480 nm filter (30 nm bandpass, Chroma), a 510 nm dichroic (Semrock), a 530 nm emission filter (50 nm bandpass, Semrock), and focused through a 40×/1.4 oil objective. For di-4-ANEPPS imaging, a 625 nm emission filter with a 50 nm bandpass was used. Bleaching studies used identical illumination conditions (480/30 nm excitation, 510 nm dichroic, 7 W/cm^2 output) and were corrected by normalizing for the extinction coefficient at the excitation wavelengths (465-495 nm).

HEK cells [5] = test: Excitation wavelength dependence of voltage response in HEK cells; format: cell-based, human; conditions: 100 mV depolarizing steps, excitation 445 to 500 nm in 5 nm increments for VF2.4.Cl
From the text: The ΔF/F for VF2.4.Cl is relatively insensitive to the excitation wavelength. As opposed to di-4-ANEPPS and other electrochromic dyes (ref the biochemistry paper and the ANINNE6 2004 Denk paper), which are highly sensitive to excitation wavelength, PeT-based sensors yield fluorescent responses which are invariant across their excitation spectra. To establish the invariant nature of the fluorescence response, HEK cells were loaded, as before, with VF2.4.Cl and subjected to depolarizing steps of 100 mV, each time varying the excitation wavelength. […] In contrast, di-4-ANEPPS varies by nearly 100%. Excitation at the red edge of the spectrum gives a maximal response whereas excitation at the blue edge gives a response that is some 10- to 20-fold less than the maximal response.
The fluorescence response of VF2.4.Cl to voltage changes is insensitive to the excitation wavelength, as is true for PeT-based probes, such as fluo-3 and Calcium Green-1. We assayed the wavelength dependence of VF2.4.Cl by changing the excitation wavelength in 5-nm steps and determined that the fluorescence response of VF2.4.Cl to a 100-mV depolarization from a holding potential of −60 mV varied only about 15% when testing wavelengths from 445 to 500 nm (FIG. 11C). […]

HEK293 cells [6] = conditions: typical values for di-4-ANEPPS; cited from earlier work
HEK cells [7] = conditions: literature (32); cited from earlier work

In the case of `Cc1ccc(N(CC(=O)O)CC(=O)O)c(OCCOc2cc(-c3c4cc(Cl)c(=O)cc-4oc4cc(O)c(Cl)cc34)ccc2N(CC(=O)O)CC(=O)O)c1` [fluo-3], the “ΔF/F for action potentials” value [1] is listed as “up to 150%”.

In the case of `CCCCN(CCCC)c1ccc(/C=C/c2ccc(-c3c4cc(Cl)c(=O)cc-4oc4cc(O)c(Cl)cc34)c(S(=O)(=O)O)c2)cc1` [VF1.4.Cl, (E)-5-(4-(dibutylamino)styryl)-2-(2,7-dichloro-6-hydroxy-3-oxo-3H-xanthen-9-yl)benzenesulfonic acid], the Φ [2] is reported as 0.24, the ε [2] is reported as 93,000 M^−1·cm^−1 and the λem [2] is reported as 534 nm. For the same molecule, the λmax [2] was 521 nm, the “voltage sensitivity ΔF/F per 100 mV” value (HEK293 cells [3]; HEK293 cells voltage-clamped at −60 mV holding potential) was 20±1% and the “sensitivity, fractional fluorescence change (ΔF/F) versus change in membrane potential” value (HEK293 cells [3]; HEK cells, holding potential −60 mV) was 0.20±0.01 % per mV. For the same molecule, the bleach rate (HEK cells [4]) was 3.9±0.1×10^−2 s^−1 and the “bleach rate, fold smaller than di-4-ANEPPS” value (HEK cells [4]; identical illumination conditions) was “two-”.

For `CCCCN(CCCC)c1ccc2cc(/C=C/c3cc[n+](CCCS(=O)(=O)[O-])cc3)ccc2c1` [di-4-ANEPPS], the “variation of fractional fluorescence response across excitation spectrum” value (HEK cells [5]) is listed as ~100%, the bleach rate (HEK cells [4]) is listed as 6.9±0.1×10^−2 s^−1 and the “sensitivity ΔF/F, typical values” (HEK293 cells [6]) is listed as 0.08-0.12 % per mV. For the same molecule, the “variation of response over excitation spectrum” value (HEK cells [7]) was ~100%.
